33 molecules from patent publication US11414424B2, “Cardiac sarcomere inhibitors” (Cytokinetics, Inc., priority 2018, dated 2022) can be followed below.

The subject of the experiment is bovine cardiac myofibrils. In words: Myofibril assay: PK/LDH-coupled steady-state ATPase activity of skinned bovine cardiac myofibrils. Type of experiment: biochemical. Conditions: Ca2+ activating to 75% of maximal rate. An outline of the steps:
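Steady-state ATPase of detergent-skinned bovine left-ventricular myofibrils (1 mg/mL), PK/LDH-coupled NADH read at 340 nm, in PIPES/MgCl2 buffer pH 6.8 with 50 μM ATP, 0.6 mM EGTA and CaCl2 set for 50% or 75% activation. Inhibition of activity measured.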
For `Cc1cc(Cl)cnc1N1CC(=O)N(Cc2ccc(C(F)(F)F)cc2)C(CC2COC2)C1=O` (stereo not drawn) [Compound 651, 1-(5-chloro-3-methylpyridin-2-yl)-3-(oxetan-3-ylmethyl)-4-(4-(trifluoromethyl)-benzyl)piperazine-2,5-dione], the “CDMF75 IC15” value is 7.3 µM.

In the case of `Cc1cc(Cl)cnc1N1CC(=O)N(Cc2ccc(C(F)(F)F)cc2)C(C2(C)COC2)C1=O` (stereo not drawn) [Compound 652, 1-(5-chloro-3-methylpyridin-2-yl)-3-(3-methyloxetan-3-yl)-4-(4-(trifluoromethyl)-benzyl)piperazine-2,5-dione], the “CDMF75 IC15” value was 9.0 µM.

Regarding `CC(=O)N1CC(C2C(=O)N(c3ncc(Cl)cc3C)CC(=O)N2Cc2ccc(C(F)(F)F)cc2)C1` (stereo not drawn) [Compound 653, 3-(1-acetylazetidin-3-yl)-1-(5-chloro-3-methylpyridin-2-yl)-4-(4-(trifluoromethyl)-benzyl)piperazine-2,5-dione], the “CDMF75 IC15” value worked out at 19.9 µM.

On to `Cc1cc(Cl)cnc1N1CC(=O)N(Cc2ccc(Cl)cc2)C(C2COC2)C1=O` (stereo not drawn) [Compound 654, 1-(5-chloro-3-methylpyridin-2-yl)-4-(4-chlorobenzyl)-3-(oxetan-3-yl)piperazine-2,5-dione], for which the “CDMF75 IC15” value is 5.3 µM.

As for `Cc1cc(Cl)cnc1N1CC(=O)N(Cc2ccc(Cl)cc2)C(CC2COC2)C1=O` (stereo not drawn) [Compound 655, 1-(5-chloro-3-methylpyridin-2-yl)-4-(4-chlorobenzyl)-3-(oxetan-3-ylmethyl)-piperazine-2,5-dione], the “CDMF75 IC15” value turned out to be 7.0 µM.

In the case of `CC1(CCC(N)=O)C(=O)N(c2ncc(Cl)cc2F)CC(=O)N1Cc1ccc(C(F)(F)F)cc1` (stereo not drawn) [Compound 656, 3-(4-(5-chloro-3-fluoro-pyridin-2-yl)-2-methyl-3,6-dioxo-1-(4-(trifluoro-methyl)benzyl)piperazin-2-yl)propanamide], the “CDMF75 IC15” value came out at 9.9 µM.

Take `CC1(C(F)F)C(=O)N(c2ncc(Cl)cc2F)CC(=O)N1Cc1ccc(C(F)(F)F)cc1` (stereo not drawn) [Compound 657, 1-(5-chloro-3-fluoropyridin-2-yl)-3-(difluoromethyl)-3-methyl-4-(4-(trifluoro-methyl)-benzyl)piperazine-2,5-dione]: the “CDMF75 IC15” value stood at 1.4 µM.

Consider `Cc1cc(Cl)cnc1N1CC(=O)N(Cc2ccc(Cl)cc2)[C@@H](C(C)C)C1=O` [Compound 660, (S)-1-(5-chloro-3-methylpyridin-2-yl)-4-(4-chlorobenzyl)-3-isopropyl-piperazine-2,5-dione], for which the “CDMF75 IC15” value was 0.84 µM.

On to `CC(=O)N1CC(CC2C(=O)N(c3ncc(Cl)cc3F)CC(=O)N2Cc2ccc(C(F)(F)F)cc2)C1` (stereo not drawn) [Compound 661, 3-((1-acetylazetidin-3-yl)methyl)-1-(5-chloro-3-fluoropyridin-2-yl)-4-(4-(trifluoromethyl)benzyl)-piperazine-2,5-dione], for which the “CDMF75 IC15” value was 17.0 µM.

With `CC(=O)N1CC(CC2C(=O)N(c3ncc(Cl)cc3F)CC(=O)N2Cc2ccc(Cl)cc2)C1` (stereo not drawn) [Compound 662, 3-((1-acetylazetidin-3-yl)methyl)-l-(5-chloro-3-fluoropyridin-2-yl)-4-(4-chlorobenzyl)piperazine-2,5-dione], the “CDMF75 IC15” value came to 16.4 µM.

As to `Cc1cc(Cl)cnc1N1CC(=O)N(Cc2ccc(Cl)cc2)C(C2(C)COC2)C1=O` (stereo not drawn) [Compound 663, 1-(5-chloro-3-methylpyridin-2-yl)-4-(4-chlorobenzyl)-3-(3-methyloxetan-3-yl)-piperazine-2,5-dione], the “CDMF75 IC15” value amounted to 7.3 µM.

As to `Cc1ccc(CN2C(=O)CN(c3ncc(Cl)cc3F)C(=O)C2C2COC2)cc1F` (stereo not drawn) [Compound 664, 1-(5-chloro-3-fluoropyridin-2-yl)-4-(3-fluoro-4-methylbenzyl)-3-(oxetan-3-yl)piperazine-2,5-dione], the “CDMF75 IC15” value stood at 2.9 µM.

As to `CCc1ccc(CN2C(=O)CN(c3ncc(Cl)cc3F)C(=O)C2C2COC2)cc1` (stereo not drawn) [Compound 665, 1-(5-chloro-3-fluoropyridin-2-yl)-4-(4-ethylbenzyl)-3-(oxetan-3-yl)piperazine-2,5-dione], the “CDMF75 IC15” value was found to be 7.3 µM.

As to `Cc1ccc(CN2C(=O)CN(c3ncc(Cl)cc3F)C(=O)C2C2COC2)cc1` (stereo not drawn) [Compound 666, 1-(5-chloro-3-fluoropyridin-2-yl)-4-(4-methylbenzyl)-3-(oxetan-3-yl)piperazine-2,5-dione], the “CDMF75 IC15” value is 2.3 µM.

For `Cc1cc(CN2C(=O)CN(c3ncc(Cl)cc3F)C(=O)C2C2COC2)ccc1F` (stereo not drawn) [Compound 667, 1-(5-chloro-3-fluoropyridin-2-yl)-4-(4-fluoro-3-methyl-benzyl)-3-(oxetan-3-yl)-piperazine-2,5-dione], the “CDMF75 IC15” value came to 1.1 µM.

Consider `O=C1C(C2COC2)N(Cc2ccc(F)c(Cl)c2)C(=O)CN1c1ncc(Cl)cc1F` (stereo not drawn) [Compound 668, 1-(5-chloro-3-fluoropyridin-2-yl)-4-(3-chloro-4-fluorobenzyl)-3-(oxetan-3-yl)piperazine-2,5-dione], for which the “CDMF75 IC15” value is 1.4 µM.

Take `O=C1C(C2CCSCC2)N(Cc2ccc(C(F)(F)F)cc2)C(=O)CN1c1ncc(Cl)cc1F` (stereo not drawn) [Compound 687, 1-(5-chloro-3-fluoropyridin-2-yl)-3-(tetrahydro-2H-thiopyran-4-yl)-4-(4-(trifluoromethyl)benzyl)-piperazine-2,5-dione]: the “CDMF75 IC15” value stood at 6.2 µM.

As for `O=C1C(C2CCOCC2)N(Cc2ccc(C(F)(F)F)cc2)C(=O)CN1c1ncc(Cl)cc1F` (stereo not drawn) [Compound 688, 1-(5-chloro-3-fluoropyridin-2-yl)-3-(tetrahydro-2H-pyran-4-yl)-4-(4-(trifluoro-methyl)benzyl)piperazine-2,5-dione], the “CDMF75 IC15” value was determined as 3.7 µM.

As to `O=C1C(C2CCS(=O)(=O)CC2)N(Cc2ccc(C(F)(F)F)cc2)C(=O)CN1c1ncc(Cl)cc1F` (stereo not drawn) [Compound 689, 1-(5-chloro-3-fluoropyridin-2-yl)-3-(1,1-dioxidotetra-hydro-2H-thiopyran-4-yl)-4-(4-(trifluoromethyl)-benzyl)piperazine-2,5-dione], the “CDMF75 IC15” value was 27.9 µM.

For the molecule `O=C1C(C2COC2)N(Cc2ccc(F)cc2)C(=O)CN1c1ccc(Br)cc1F` (stereo not drawn) [Compound 700, 1-(4-bromo-2-fluoro-phenyl)-4-(4-fluorobenzyl)-3-(oxetan-3-yl)piperazine-2,5-dione], the “CDMF75 IC15” value was 3.4 µM.

With `CC(=O)N1CC2(C1)C(=O)N(c1ccc(-c3ncon3)cc1F)CC(=O)N2Cc1ccc(C(F)(F)F)cc1` [Compound 701, 2-acetyl-8-(2-fluoro-4-(1,2,4-oxadiazol-3-yl)phenyl)-5-(4-(trifluoromethyl)benzyl)-2,5,8-triazaspiro[3.5]nonane-6,9-dione], the “CDMF75 IC15” value is 3.9 µM.

As to `CC(=O)N1CC2(C1)C(=O)N(c1ccc(-c3noc(C)n3)cc1F)CC(=O)N2Cc1ccc(C(F)(F)F)cc1` [Compound 702], the “CDMF75 IC15” value turned out to be 25.5 µM.

Regarding `N#Cc1ccc(N2CC(=O)N(Cc3ccc(F)cc3)C(C3COC3)C2=O)c(F)c1` (stereo not drawn) [Compound 706, 3-fluoro-4-(4-(4-fluoro-benzyl)-3-(oxetan-3-yl)-2,5-dioxopiperazin-1-yl)benzonitrile], the “CDMF75 IC15” value is 4.5 µM.

Consider `O=C1C(C2COC2)N(Cc2ccc(F)cc2)C(=O)CN1c1ncc(Br)cc1F` (stereo not drawn) [Compound 707, 1-(5-bromo-3-fluoropyridin-2-yl)-4-(4-fluorobenzyl)-3-(oxetan-3-yl)piperazine-2,5-dione], for which the “CDMF75 IC15” value worked out at 2.9 µM.

For the molecule `O=C1C(C2COC2)N(Cc2ccc(Cl)cc2)C(=O)CN1c1ncc(Br)cc1F` (stereo not drawn) [Compound 708, 1-(5-bromo-3-fluoropyridin-2-yl)-4-(4-chlorobenzyl)-3-(oxetan-3-yl)piperazine-2,5-dione], the “CDMF75 IC15” value was 1.4 µM.

For the molecule `O=C1C(C2COC2)N(Cc2ccc(C(F)(F)F)cc2)C(=O)CN1c1ncc(OC(F)F)cc1F` (stereo not drawn) [Compound 711, 1-(5-(difluoromethoxy)-3-fluoropyridin-2-yl)-3-(oxetan-3-yl)-4-(4-(trifluoromethyl)benzyl)-piperazine-2,5-dione], the “CDMF75 IC15” value worked out at 24.6 µM.

As to `Cc1cc(Cl)cnc1N1CC(=O)N(Cc2ccc(F)cc2)C(C2COC2)C1=O` (stereo not drawn) [Compound 714, 1-(5-chloro-3-methylpyridin-2-yl)-4-(4-fluorobenzyl)-3-(oxetan-3-yl)piperazine-2,5-dione], the “CDMF75 IC15” value is 12.4 µM.

`Cc1cc(Cl)cnc1N1CC(=O)N(Cc2ccc(F)c(Cl)c2)C(C2COC2)C1=O` (stereo not drawn) [Compound 717, 1-(5-chloro-3-methyl-pyridin-2-yl)-4-(3-chloro-4-fluorobenzyl)-3-(oxetan-3-yl)piperazine-2,5-dione]: the “CDMF75 IC15” value worked out at 7.3 µM.

Regarding `Cc1cc(Cl)cnc1N1CC(=O)N(Cc2ccc(F)c(F)c2)C(C2COC2)C1=O` (stereo not drawn) [Compound 720, 1-(5-chloro-3-methyl-pyridin-2-yl)-4-(3,4-difluorobenzyl)-3-(oxetan-3-yl)piperazine-2,5-dione], the “CDMF75 IC15” value amounted to 9.2 µM.

As to `C=Cc1cnc(N2CC(=O)N(Cc3ccc(Cl)cc3)C(C3COC3)C2=O)c(F)c1` (stereo not drawn) [Compound 723, 4-(4-chlorobenzyl)-1-(3-fluoro-5-vinylpyridin-2-yl)-3-(oxetan-3-yl)piperazine-2,5-dione], the “CDMF75 IC15” value worked out at 7.1 µM.

Take `Cc1ccc(CN2C(=O)CN(c3ncc(Cl)cc3C)C(=O)C2C2COC2)cc1F` (stereo not drawn) [Compound 724, 1-(5-chloro-3-methyl-pyridin-2-yl)-4-(3-fluoro-4-methylbenzyl)-3-(oxetan-3-yl)piperazine-2,5-dione]: the “CDMF75 IC15” value was 13.8 µM.

As to `Cc1cc(CN2C(=O)CN(c3ncc(Cl)cc3C)C(=O)C2C2COC2)ccc1F` (stereo not drawn) [Compound 727, 1-(5-chloro-3-methyl-pyridin-2-yl)-4-(4-fluoro-3-methylbenzyl)-3-(oxetan-3-yl)piperazine-2,5-dione], the “CDMF75 IC15” value was determined as 3.2 µM.

Regarding `Cc1cc(Cl)cnc1N1CC(=O)N(Cc2ccc(Cl)c(F)c2)C(C2COC2)C1=O` (stereo not drawn) [Compound 730, 4-(4-chloro-3-fluoro-benzyl)-1-(5-chloro-3-methylpyridin-2-yl)-3-(oxetan-3-yl)-piperazine-2,5-dione], the “CDMF75 IC15” value came out at 3.4 µM.
